Laboratory results reported in a melting point compilation (Tetko et al.; mined from patent text by program, amines drawn as free bases though some values may be those of a salt).

melting point [°C] | SMILES
160 to 168 | CNC(=O)c1ccccc1Nc1nc(Nc2ccc3c(c2)CCC(F)(F)CC3)ncc1Cl
252 to 254 | N=C(NO)c1ccc(-c2cccc(-c3cn4cc(C(=N)NO)ccc4n3)c2)cc1
225 | Cc1cc(-c2ccc(C(F)(F)F)cc2)nc(-c2cccc(-c3ccc(S(N)(=O)=O)s3)c2)n1
219 to 220 | CS(=O)(=O)Nc1ccc(-c2cn3cccnc3n2)cc1Sc1ccc(F)cc1F
128 to 130 | Nc1ccc(-c2ncnn2-c2ccc(Br)cc2)cc1
242 to 244 | Cc1oc2ccccc2c1C(=O)NCc1ccc2c(Br)c(OCc3nnn[nH]3)ccc2c1
87 to 89 | Cc1cccc2ncn(C(C)C(O)(Cn3cncn3)c3ccc(F)cc3F)c(=O)c12 (stereo not given)
233 to 236 | O=C(Nc1cccc(-c2ccnc3c(C(=O)c4cccs4)cnn23)c1)NC1CCCCC1
143 to 147 | CC(C)(C)c1ccc2c(C=O)c3ccccc3c(Cl)c2c1
115 to 117 | COc1cc(N)c(Cl)cc1C(=O)NCC1CCN(CCCCCC(=O)c2ccc(F)cc2F)CC1
210 to 212 | COc1cccc(C=C2NC(=O)NC2=O)c1OCc1ccccc1
240 to 243 | O=C(Cc1c(-c2ccccc2)c2cc(O)c(Cl)cc2oc1=O)Nc1ccc(F)cc1C(F)(F)F
79 to 82 | N#Cc1ncccc1Oc1ccccc1
150 to 154 | Cc1c[nH]c(-c2ccc(OCC(O)CNC3CC3)cc2)n1 (stereo not given)
218 to 222 | Cc1noc(C)c1-c1nn(C(C)c2oc3ccccc3c(=O)c2-c2cccc(F)c2)c2ncnc(N)c12 (stereo not given)
71 to 74 | CN(C)C(=O)n1cc(C(=O)C2CSC(c3cccnc3)N2)c2ccc(OCc3ccc(F)cc3)cc21 (stereo not given)
151 | NS(=O)(=O)c1ccc(-n2nc(C(F)(F)F)cc2-c2ccc(-c3ccco3)cc2)cc1F
220 | Cc1cc(-c2cc(C(F)(F)F)n3ncc(-c4nc(-c5ccc(N)nc5)no4)c3n2)ccc1C(F)(F)F
157 to 158 | COc1cc(C(=O)O)ccc1Cc1cn(C)c2ccc(NC(=O)OC3CCCC3)cc12
> 300 | O=C(O)c1c2c(nc3ccc(F)cc13)-c1ccc(-c3ccccc3C(F)(F)F)cc1CCC2
201 to 203 | O=C(Cn1nnc2ccccc21)Nc1ccc(-n2nc(C3CC3)cc2C2CC2)c(F)c1
105 to 109 | CC1(CC(=O)N2CCC([C@H]3c4ncc(Br)cc4CCc4cc(Cl)cc(Br)c43)CC2)C=CN(S(C)(=O)=O)C=C1
164 to 166 | O=C(NCc1ccccc1)c1cnccc1-c1ccccc1
129 to 131 | OCc1cn(Cc2ccccc2)c(-c2ccc(OCc3ccccc3)cc2)n1
110 to 112 | Cn1cc(C(=O)Nc2ccccc2-c2cc(F)ccc2F)c(C(F)(F)F)n1
131 to 133 | O=C(O)CCC(=O)c1c(-c2ccccc2)cc2ccccn12

More lines, now with the values behind:

SMILES | melting point [°C]
COCO[C@H]1C[C@H]2OC(C)(C)OC[C@]23C2C(CC[C@]3(O)C1)[C@@]1(OCOC)CC[C@H](CO)[C@@]1(C)C[C@H]2OCOC (stereo not given in full) | 154 to 158
N=C(N)NC(=O)OCCNC(=O)c1ccc2cc(C(=O)NC(=N)N)ccc2c1 | 205
COC(=O)c1cc(NC(=O)OC(C)(C)C)c([N+](=O)[O-])cc1C#Cc1ccccc1 | 173
CCC1=C(c2cccc(C(F)(F)F)c2)n2ncc(C#N)c2N(C(=O)CCl)C1 | 150 to 152
COC(=O)COc1ccc(C(=O)CNC=O)cc1 | 116
Nc1c([N+](=O)[O-])cnn1-c1c(Cl)cc(C(F)(F)F)cc1Cl | 190
CN(C)CCc1c[nH]c2ccc(CCC(=O)NCc3ccc(NS(C)(=O)=O)cc3)cc12 | 78 to 82
CCc1cc2c(s1)-n1c(nnc1CNC(=O)c1cc3ccccc3n1CC(=O)O)CN=C2c1ccccc1Cl | 222 to 223
CCCCNC(=O)/C(=C/C=C/c1cc2ccccc2[nH]1)OC | 185 to 186
ClCc1cncc(-c2ccccc2)c1 | 75 to 76
COC(=O)c1ncsc1S(=O)(=O)Cl | 94 to 97.5
O=C1CC[C@@H](C(=O)N[C@@H](CSCc2ccccc2)C(=O)O)N1 | 181 to 183
Cc1cnc(N2CCc3ccccc3CC2)c([N+](=O)[O-])c1 | 87 to 88
CCCC12CCC(=O)C=C1c1c(cc(OC)c(Cl)c1Cl)C2O (stereo not given) | 173 to 175
CCC(CC)Oc1cc(C)nc(Nc2c(C)cc(C)cc2C)c1C#N | 105 to 107
CC(=O)OCC1OC(OS(C)(=O)=S)C(OC(C)=O)C(OC(C)=O)C1OC(C)=O (stereo not given) | 118 to 119
CCCc1nc2c(N)nc3ccccc3c2n1CCOCCCS(C)=O (stereo not given) | 148 to 151
CCOC(=O)c1c(Cl)nc2cc(Cl)c(F)cc2c1CCl | > 250
O=C1C=C(Oc2ccc(C(F)(F)F)cc2)C(O)O1 (stereo not given) | 87 to 89
NC(=O)C1N=COC1CCl (stereo not given) | 110 to 112
CCOC(=O)COC1=C(C(=O)Nc2cc(Cl)cc(Cl)c2)SC2=NCCCN21 | 165
CN(N=Cc1ccco1)C(=O)c1[nH]c2ccccc2c1-c1ccccc1 | 196 to 199

SMILES | melting point [°C]
O=c1[nH]c2c(n(O)c1=O)C1=C(CCC(n3ccc(CN4CCN(C(c5ccccc5)c5ccccc5)CC4)c3)=C1)CC2 | > 200
O=C(NCc1ccccc1)c1ccnc(N2CCN(CC3CC3)C2=O)c1 | 121 to 123
O=c1[nH]c(-c2ccccc2)ncc1[N+](=O)[O-] | 264 to 266
O=C(CCc1oc(-n2cncn2)nc1-c1ccc(Cl)cc1)NCCCl | 157 to 158
Cc1[nH]c(=O)c(C#N)c2c1CC(c1ccccn1)CC2 (stereo not given) | > 300
CC1(C)OC(=O)C(CO)(c2ccc(Cl)cc2Cl)O1 (stereo not given) | 182 to 185
N#Cc1ncn2c1[C@@H]1CCN1C(=O)c1c(Br)cccc1-2 | 133 to 136
CCCCc1c(Cl)nc(C)nc1Cl | 50 to 51
Fc1ccc2c(c1)OCc1c(-c3nc(C4CCCC4)no3)ncn1-2 | 134 to 135
COC(=O)C12OC1(Cc1ccc(Cl)cc1)CCC2(C)C (stereo not given) | 86 to 87
COc1ccc2c3c1OC1CCCC4(O)C(C2)N(C(=O)C2CCC2)CCC314 (stereo not given) | 140
COc1cc(C(=O)c2c(C)nn(C)c2O)cc(OC)c1OC | 189 to 191
CC1(C)C(=O)Nc2cc3[nH]c(-c4ccco4)nc3cc21 | 311 to 316
Cc1cc(C)nc(-n2ncnc2N)n1 | 230 to 232
CCC(=CC(CNC(=O)c1cccnc1SC)=NO)C(C)[N+](=O)[O-] (stereo not given) | 161 to 163
Cc1ccccc1CCOCC(=O)O | 47 to 48
Cc1cc(C(O)=S)c(Cl)cc1Cl | 187
CCCNc1nc(C#N)c(C#N)nc1-c1ccc(C)cc1 | 115 to 116
O=C1c2ccccc2C(=O)N1C1CCCc2sccc21 (stereo not given) | 166 to 168
CCS(=O)(=O)C(=CNc1ccc(NC=C(S(=O)(=O)CC)S(=O)(=O)CC)cc1)S(=O)(=O)CC | 265 to 268
CCc1cccc(C(C)C)c1N1C(=O)CCN(CC)C1=S | 129 to 132
COC(=O)C(Cc1ccc(O)c(O)c1)NC(=O)OC(C)(C)C (stereo not given) | 132 to 135
